{"source": "patent US10336732B2", "about": "“1-heterocyclyl isochromanyl compounds and analogs for treating CNS disorders” (Sunovion Pharmaceuticals Inc., priority 2015, dated 2019)"}
{"test_system": "mice", "experiment": "Neuropharmacological assay (SmartCube), behavioral signature of compound-treated mice", "type": "in vivo", "conditions": "i.p. 15 min before behavioral test, most efficacious dose(s) of 3 doses", "how_it_was_run": "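Read-out is an automated video-based behavioral signature, scored as per-class probabilities (e.g., anxiolytic, antidepressant) against reference compounds. Dosing was i.p. at three doses, 15 min pre-test, in NMP, polyethylene glycol and propylene glycol. Values shown are from the most efficacious dose(s).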"}
{"smiles": "Fc1ccc2c(c1)CO[C@H]2[C@@H]1CCCN1", "note": "[Compound I-119, (S)-2-((R)-5-fluoro-1,3-dihydroisobenzofuran-1-yl)pyrrolidine]", "AD: ADHD (probability that behavioral signature matches class)": "+ (LOQ ≤ + <5%)", "AG: analgesic (probability that behavioral signature matches class)": "+++ (25% ≤ +++ <50%)", "AX: anxiolytic (probability that behavioral signature matches class)": "++ (5% ≤ ++ <25%)", "CE: cognitive enhancer (probability that behavioral signature matches class)": "++ (5% ≤ ++ <25%)", "DP: anti-depressant (probability that behavioral signature matches class)": "++ (5% ≤ ++ <25%)", "HA: hallucinogen (probability that behavioral signature matches class)": "+ (LOQ ≤ + <5%)", "MS: mood stabilizer (probability that behavioral signature matches class)": "+ (LOQ ≤ + <5%)", "PS: anti-psychotic (probability that behavioral signature matches class)": "+++ (25% ≤ +++ <50%)", "SD: sedative hypnotic (probability that behavioral signature matches class)": "+ (LOQ ≤ + <5%)", "UN: uncharacterized CNS activity (probability that behavioral signature matches class)": "+ (LOQ ≤ + <5%)", "XG: anxiogenic (probability that behavioral signature matches class)": "+ (LOQ ≤ + <5%)"}
{"smiles": "Cc1ccc2c(c1)[C@H]([C@H]1CCCN1)OCC2", "note": "[Compound I-28, (R)-2-((R)-7-methylisochroman-1-yl)pyrrolidine]", "AD: ADHD (probability that behavioral signature matches class)": "+ (LOQ ≤ + <5%)", "AG: analgesic (probability that behavioral signature matches class)": "++ (5% ≤ ++ <25%)", "AX: anxiolytic (probability that behavioral signature matches class)": "+++ (25% ≤ +++ <50%)", "CE: cognitive enhancer (probability that behavioral signature matches class)": "+ (LOQ ≤ + <5%)", "DP: anti-depressant (probability that behavioral signature matches class)": "++ (5% ≤ ++ <25%)", "HA: hallucinogen (probability that behavioral signature matches class)": "+ (LOQ ≤ + <5%)", "MS: mood stabilizer (probability that behavioral signature matches class)": "+ (LOQ ≤ + <5%)", "PS: anti-psychotic (probability that behavioral signature matches class)": "++ (5% ≤ ++ <25%)", "SD: sedative hypnotic (probability that behavioral signature matches class)": "+ (LOQ ≤ + <5%)", "UN: uncharacterized CNS activity (probability that behavioral signature matches class)": "++ (5% ≤ ++ <25%)", "XG: anxiogenic (probability that behavioral signature matches class)": "+ (LOQ ≤ + <5%)"}
{"smiles": "Fc1ccc2c(c1)CO[C@@H]2[C@H]1CCN1", "note": "[Compound I-127, (R)-2-((S)-5-fluoro-1,3-dihydroisobenzofuran-1-yl)azetidine]", "AD: ADHD (probability that behavioral signature matches class)": "+ (LOQ ≤ + <5%)", "AG: analgesic (probability that behavioral signature matches class)": "++ (5% ≤ ++ <25%)", "AX: anxiolytic (probability that behavioral signature matches class)": "++ (5% ≤ ++ <25%)", "CE: cognitive enhancer (probability that behavioral signature matches class)": "++ (5% ≤ ++ <25%)", "DP: anti-depressant (probability that behavioral signature matches class)": "++ (5% ≤ ++ <25%)", "HA: hallucinogen (probability that behavioral signature matches class)": "+ (LOQ ≤ + <5%)", "MS: mood stabilizer (probability that behavioral signature matches class)": "+ (LOQ ≤ + <5%)", "PS: anti-psychotic (probability that behavioral signature matches class)": "++ (5% ≤ ++ <25%)", "SD: sedative hypnotic (probability that behavioral signature matches class)": "+ (LOQ ≤ + <5%)", "UN: uncharacterized CNS activity (probability that behavioral signature matches class)": "++ (5% ≤ ++ <25%)", "XG: anxiogenic (probability that behavioral signature matches class)": "+ (LOQ ≤ + <5%)"}
{"smiles": "Fc1cccc2c1CCO[C@H]2[C@H]1CCCN1", "note": "[Compound I-15, (R)-2-((R)-5-fluoroisochroman-1-yl)pyrrolidine]", "AD: ADHD (probability that behavioral signature matches class)": "+ (LOQ ≤ + <5%)", "AG: analgesic (probability that behavioral signature matches class)": "++ (5% ≤ ++ <25%)", "AX: anxiolytic (probability that behavioral signature matches class)": "+++ (25% ≤ +++ <50%)", "CE: cognitive enhancer (probability that behavioral signature matches class)": "++ (5% ≤ ++ <25%)", "DP: anti-depressant (probability that behavioral signature matches class)": "++ (5% ≤ ++ <25%)", "HA: hallucinogen (probability that behavioral signature matches class)": "+ (LOQ ≤ + <5%)", "MS: mood stabilizer (probability that behavioral signature matches class)": "+ (LOQ ≤ + <5%)", "PS: anti-psychotic (probability that behavioral signature matches class)": "++ (5% ≤ ++ <25%)", "SD: sedative hypnotic (probability that behavioral signature matches class)": "+ (LOQ ≤ + <5%)", "UN: uncharacterized CNS activity (probability that behavioral signature matches class)": "+ (LOQ ≤ + <5%)", "XG: anxiogenic (probability that behavioral signature matches class)": "+ (LOQ ≤ + <5%)"}
{"smiles": "Fc1ccc2c(c1)CCCO[C@@H]2[C@H]1CCCN1", "note": "[Compound I-112, (R)-2-((S)-7-fluoro-1,3,4,5-tetrahydrobenzo[c]oxepin-1-yl)pyrrolidine]", "AD: ADHD (probability that behavioral signature matches class)": "+ (LOQ ≤ + <5%)", "AG: analgesic (probability that behavioral signature matches class)": "+ (LOQ ≤ + <5%)", "AX: anxiolytic (probability that behavioral signature matches class)": "++ (5% ≤ ++ <25%)", "CE: cognitive enhancer (probability that behavioral signature matches class)": "++ (5% ≤ ++ <25%)", "DP: anti-depressant (probability that behavioral signature matches class)": "++ (5% ≤ ++ <25%)", "HA: hallucinogen (probability that behavioral signature matches class)": "+ (LOQ ≤ + <5%)", "MS: mood stabilizer (probability that behavioral signature matches class)": "+ (LOQ ≤ + <5%)", "PS: anti-psychotic (probability that behavioral signature matches class)": "+++ (25% ≤ +++ <50%)", "SD: sedative hypnotic (probability that behavioral signature matches class)": "+ (LOQ ≤ + <5%)", "UN: uncharacterized CNS activity (probability that behavioral signature matches class)": "+ (LOQ ≤ + <5%)", "XG: anxiogenic (probability that behavioral signature matches class)": "+ (LOQ ≤ + <5%)"}
{"smiles": "c1ccc2c(c1)CCCO[C@@H]2[C@@H]1CCCN1", "note": "[Compound I-97, (S)-2-((S)-1,3,4,5-tetrahydrobenzo[c]oxepin-1-yl)pyrrolidine]", "AD: ADHD (probability that behavioral signature matches class)": "+ (LOQ ≤ + <5%)", "AG: analgesic (probability that behavioral signature matches class)": "+++ (25% ≤ +++ <50%)", "AX: anxiolytic (probability that behavioral signature matches class)": "++ (5% ≤ ++ <25%)", "CE: cognitive enhancer (probability that behavioral signature matches class)": "++ (5% ≤ ++ <25%)", "DP: anti-depressant (probability that behavioral signature matches class)": "++ (5% ≤ ++ <25%)", "HA: hallucinogen (probability that behavioral signature matches class)": "+ (LOQ ≤ + <5%)", "MS: mood stabilizer (probability that behavioral signature matches class)": "++ (5% ≤ ++ <25%)", "PS: anti-psychotic (probability that behavioral signature matches class)": "+++ (25% ≤ +++ <50%)", "SD: sedative hypnotic (probability that behavioral signature matches class)": "++ (5% ≤ ++ <25%)", "UN: uncharacterized CNS activity (probability that behavioral signature matches class)": "+ (LOQ ≤ + <5%)", "XG: anxiogenic (probability that behavioral signature matches class)": "+ (LOQ ≤ + <5%)"}
{"smiles": "Fc1ccc2c(c1)[C@H](F)CO[C@H]2[C@@H]1CCCN1", "note": "[Compound I-137, (S)-2-((1R,4S)-4,6-difluoroisochroman-1-yl)pyrrolidine]", "AD: ADHD (probability that behavioral signature matches class)": "+ (LOQ ≤ + <5%)", "AG: analgesic (probability that behavioral signature matches class)": "++ (5% ≤ ++ <25%)", "AX: anxiolytic (probability that behavioral signature matches class)": "++ (5% ≤ ++ <25%)", "CE: cognitive enhancer (probability that behavioral signature matches class)": "++ (5% ≤ ++ <25%)", "DP: anti-depressant (probability that behavioral signature matches class)": "++ (5% ≤ ++ <25%)", "HA: hallucinogen (probability that behavioral signature matches class)": "+ (LOQ ≤ + <5%)", "MS: mood stabilizer (probability that behavioral signature matches class)": "++ (5% ≤ ++ <25%)", "PS: anti-psychotic (probability that behavioral signature matches class)": "++++ (50% ≤ ++++)", "SD: sedative hypnotic (probability that behavioral signature matches class)": "++ (5% ≤ ++ <25%)", "UN: uncharacterized CNS activity (probability that behavioral signature matches class)": "++ (5% ≤ ++ <25%)", "XG: anxiogenic (probability that behavioral signature matches class)": "+ (LOQ ≤ + <5%)"}
{"smiles": "COc1cccc2c1[C@@H]([C@@H]1CCCN1)OCC2", "note": "[Compound I-48, (S)-2-((S)-8-methoxyisochroman-1-yl)pyrrolidine]", "AD: ADHD (probability that behavioral signature matches class)": "+ (LOQ ≤ + <5%)", "AG: analgesic (probability that behavioral signature matches class)": "+++ (25% ≤ +++ <50%)", "AX: anxiolytic (probability that behavioral signature matches class)": "++ (5% ≤ ++ <25%)", "CE: cognitive enhancer (probability that behavioral signature matches class)": "++ (5% ≤ ++ <25%)", "DP: anti-depressant (probability that behavioral signature matches class)": "++ (5% ≤ ++ <25%)", "HA: hallucinogen (probability that behavioral signature matches class)": "+ (LOQ ≤ + <5%)", "MS: mood stabilizer (probability that behavioral signature matches class)": "+ (LOQ ≤ + <5%)", "PS: anti-psychotic (probability that behavioral signature matches class)": "++ (5% ≤ ++ <25%)", "SD: sedative hypnotic (probability that behavioral signature matches class)": "+ (LOQ ≤ + <5%)", "UN: uncharacterized CNS activity (probability that behavioral signature matches class)": "+ (LOQ ≤ + <5%)", "XG: anxiogenic (probability that behavioral signature matches class)": "+ (LOQ ≤ + <5%)"}
{"smiles": "FC1(F)CO[C@@H]([C@@H]2CCCN2)c2ccccc21", "note": "[Compound I-140, (S)-2-((R)-4,4-difluoroisochroman-1-yl)pyrrolidine]", "AD: ADHD (probability that behavioral signature matches class)": "+ (LOQ ≤ + <5%)", "AG: analgesic (probability that behavioral signature matches class)": "++ (5% ≤ ++ <25%)", "AX: anxiolytic (probability that behavioral signature matches class)": "++ (5% ≤ ++ <25%)", "CE: cognitive enhancer (probability that behavioral signature matches class)": "+++ (25% ≤ +++ <50%)", "DP: anti-depressant (probability that behavioral signature matches class)": "++ (5% ≤ ++ <25%)", "HA: hallucinogen (probability that behavioral signature matches class)": "+ (LOQ ≤ + <5%)", "MS: mood stabilizer (probability that behavioral signature matches class)": "++ (5% ≤ ++ <25%)", "PS: anti-psychotic (probability that behavioral signature matches class)": "++ (5% ≤ ++ <25%)", "SD: sedative hypnotic (probability that behavioral signature matches class)": "+++ (25% ≤ +++ <50%)", "UN: uncharacterized CNS activity (probability that behavioral signature matches class)": "++ (5% ≤ ++ <25%)", "XG: anxiogenic (probability that behavioral signature matches class)": "+ (LOQ ≤ + <5%)"}
{"smiles": "c1cc2c(c3c1CO[C@H]3[C@@H]1CCCN1)OCO2", "note": "[Compound I-141, (S)-2-((R)-6,8-dihydro-[1,3]dioxolo[4,5-e]isobenzofuran-8-yl)-pyrrolidine]", "AD: ADHD (probability that behavioral signature matches class)": "++ (5% ≤ ++ <25%)", "AG: analgesic (probability that behavioral signature matches class)": "++ (5% ≤ ++ <25%)", "AX: anxiolytic (probability that behavioral signature matches class)": "++ (5% ≤ ++ <25%)", "CE: cognitive enhancer (probability that behavioral signature matches class)": "+++ (25% ≤ +++ <50%)", "DP: anti-depressant (probability that behavioral signature matches class)": "++ (5% ≤ ++ <25%)", "HA: hallucinogen (probability that behavioral signature matches class)": "++ (5% ≤ ++ <25%)", "MS: mood stabilizer (probability that behavioral signature matches class)": "+ (LOQ ≤ + <5%)", "PS: anti-psychotic (probability that behavioral signature matches class)": "++ (5% ≤ ++ <25%)", "SD: sedative hypnotic (probability that behavioral signature matches class)": "+ (LOQ ≤ + <5%)", "UN: uncharacterized CNS activity (probability that behavioral signature matches class)": "++++ (50% ≤ ++++)", "XG: anxiogenic (probability that behavioral signature matches class)": "+ (LOQ ≤ + <5%)"}
{"smiles": "Fc1cccc2c1[C@@H]([C@H]1CCCN1)OCC2", "note": "[Compound I-3, (R)-2-((S)-8-fluoroisochroman-1-yl)pyrrolidine]", "AD: ADHD (probability that behavioral signature matches class)": "+ (LOQ ≤ + <5%)", "AG: analgesic (probability that behavioral signature matches class)": "++ (5% ≤ ++ <25%)", "AX: anxiolytic (probability that behavioral signature matches class)": "++ (5% ≤ ++ <25%)", "CE: cognitive enhancer (probability that behavioral signature matches class)": "++ (5% ≤ ++ <25%)", "DP: anti-depressant (probability that behavioral signature matches class)": "+++ (25% ≤ +++ <50%)", "HA: hallucinogen (probability that behavioral signature matches class)": "+ (LOQ ≤ + <5%)", "MS: mood stabilizer (probability that behavioral signature matches class)": "++ (5% ≤ ++ <25%)", "PS: anti-psychotic (probability that behavioral signature matches class)": "++ (5% ≤ ++ <25%)", "SD: sedative hypnotic (probability that behavioral signature matches class)": "++ (5% ≤ ++ <25%)", "UN: uncharacterized CNS activity (probability that behavioral signature matches class)": "+++ (25% ≤ +++ <50%)", "XG: anxiogenic (probability that behavioral signature matches class)": "+ (LOQ ≤ + <5%)"}
